Key:
[1] = biological target: T1, isolated nNOS from rat cerebella (Rattus norvegicus, UniProt P29476); experiment: Arginine assay according to the invention (HTS NOS assay, cation exchanger filter MTP)
[2] = biological target: T1, isolated nNOS from rat cerebella; experiment: Citrulline assay according to Bredt and Snyder (1990), separation by column chromatography; assay type: biochemical; details: [3H]arginine 50 nM
Source text: On completion of the reaction the enzyme mixtures are passed over separate cation exchange columns. Elution of the [^3H]L-citrulline and determination of the eluates then takes place on a β-counter. The disadvantage of this method is that column chromatography has to take place separately for each enzyme mixture (e.g. 96 chromatography columns are needed per 96 well microtiter plate).
The precipitate is discarded.
The separation was effected by means of column chromatography.

inhibition at 10 µM ([1]; read-out: NOS inhibition) [%]	IC50 [1] [µM]	SMILES	IC50 [2] [µM]	IC50 ([1]; read-out: IC50 value, Arginine assay according to the invention as in Example 4, [3H]arginine 50 nM, nNOS from rat cerebella, 96 well cation exchanger filter MTP) [µM]
~50	–	O=[N+]([O-])c1cccc2cn[nH]c12 [7-Nitroindazole, 7-nitroindazole]	–	–
–	–	FC(F)(F)c1ccccc1-n1ccnc1 [TRIM, 1-(2-trifluormethylphenyl)imidazole]	> 100	> 100
–	5.02	C=CCC(=N)NCCC[C@H](N)C(=O)O [Vinyl L-NIO, N5-(1-imino-3-butenyl)-L-ornithine]	5.57	–
